Data reported in patent US12448394B2, “Heterocyclic pyrazole derivatives as type III receptor tyrosine kinase inhibitors” (DEVELOPMENT CENTER FOR BIOTECHNOLOGY, priority 2019, dated 2025).

Assays:
MET kinase = target: T1, MET kinase (Homo sapiens, UniProt P08581); experiment: MET kinase assay (AlphaScreen, counter screen); assay type: biochemical; conditions: read-out: Ranking of IC50 values, MET
T1 construct: purchased SignalChem
Outline: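 IC50 came from duplicate serial dilutions, with AlphaScreen detection of phosphorylated biotin-poly(Glu4:Tyr1). The reaction used 1 ng recombinant MET, 10 µM ATP […], and MOPS pH 7.0/MgCl2 buffer, ran 45 min at 30 °C, and was quenched with EDTA.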

[1] = tested on: Molm-14 human acute myeloid leukemia cell with FLT3-ITD mutation; experiment: Molm-14 cell proliferation assay (CellTiter 96); assay type: cell-based; conditions: Homo sapiens; Molm-14 cells, 72 hours treatment, CellTiter96; read-out: anti-proliferation activity Molm-14 (FLT3-ITD), IC50 ranking
Outline: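 Molm-14 (FLT3-ITD AML) cells in RPMI 1640 with 10% heat-inactivated FBS were seeded at 25000 cells/well, incubated overnight at 37° C, 5% CO2, then treated with increasing compound concentrations for 72 hours. Viability was read as absorbance at 490 nm after 2˜4 hours with CellTiter96 AQueous One reagent.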

[2] = tested on: THP-1 human acute monocytic leukemia cell with NRAS G12D mutation; experiment: THP-1 cell proliferation assay (counter screen); assay type: cell-based; conditions: Homo sapiens, THP-1 cells, 72 hours treatment, CellTiter96, read-out: anti-proliferation activity THP-1 NRAS N12D, IC50 ranking
Outline: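 Viability measured as 490 nm absorbance after 2–4 h with CellTiter96 AQueous One reagent, following 72 h treatment with rising compound concentrations. THP-1 cells, 5000/well, grown in RPMI 1640 with 10% FBS and 0.05 mM 2-mercaptoethanol at 37° C, 5% CO2, plated overnight before dosing.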

[3] = tested on: A375 melanoma cell with BRAF V600E mutation; experiment: A375 cell proliferation assay (counter screen); assay type: cell-based, human; conditions: Homo sapiens, A-375, A375 cells, 72 hours treatment, CellTiter96, read-out: anti-proliferation activity A375 BRAF V600E, IC50 ranking
Outline: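 A375 cells (BRAF V600E) seeded at 2000 cells/well in DMEM with 10% FBS, settled overnight at 37° C, 5% CO2, then exposed to increasing compound concentrations for 72 hours. Viability read by MTS-type CellTiter96 AQueous reagent, absorbance at 490 nm after 2–4 hours.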

[4] = tested on: HCC827 NSCLC cell with EGFR exon 19 deletion mutation; experiment: HCC827 cell proliferation assay (counter screen); assay type: cell-based, human; conditions: Homo sapiens, HCC827 cells, 72 hours treatment, CellTiter96, read-out: anti-proliferation activity HCC827 EGFR Exon19 del, IC50 ranking
Outline: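 HCC827 cells (EGFR exon 19 deletion) were seeded at 8000 cells/well in RPMI1640 with 10% FBS, then exposed to increasing compound concentrations for 72 h at 37 °C. Viability was read by CellTiter96 AQueous One (MTS), absorbance 490 nm after 2–4 h.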

[5] = tested on: phosphorylation of FLT3 and its down-stream effector STAT5; experiment: Western blotting of p-FLT3 and p-STAT5 in MV4-11 cells; assay type: cell-based; conditions: Homo sapiens; at 30 nM treatment, 3 hours, FLT3-ITD positive MV4-11 leukemia cells; read-out: inhibition activity against phosphorylation of FLT3 and its down-stream effector STAT5
Description: The potent compounds of formula (I) in EXAMPLE 2 were evaluated, by western blotting assay, for their cellular potencies against phosphorylation of FLT3 and its down-stream effector STAT5 in MV4-11 leukemia cell line with constitutive activation of FLT3 signaling. For western blotting experiments, MV4-11 cells were cultured in IMDM medium containing 0.1% FBS overnight. On the assay day, three million cells were treated with or without compounds for 3 hours in 15 mL tubes. Then, the whole cell lysates were harvested, following extraction by adding 2×SDS Sample Buffer and boiling on hot plate at 105° C. for 15 minutes. The resulting cell lysates were separated by SDS-PAGE electrophoresis and transferred to PVDF membrane. Protein expression was detected using immunoblot with corresponding primary antibody and secondary antibody following the standard procedures. Antibody against p-FLT3 (Tyr-591), anti-rabbit IgG HRP-linked secondary antibody, and anti-mouse IgG HRP-linked secondary antibody were purchased from Cell Signaling Technology. Antibody against p-STAT5 (Tyr-694) was purchased from BD biosciences. Antibody against actin was purchased from R&D system. […] Band intensities of western blot were also quantified by ChemiDoc™ MP Imaging System. Relative intensities of bandscorresponding to drug treatments at a single concentration (30 nM) were compared to the DMSO control group. The percentage (%) inhibition at each drug concentration was calculated using the formula: Percentage(%)inhibition=(1−Relative intensity)×100.

T1 sequence (P08581 25-1390): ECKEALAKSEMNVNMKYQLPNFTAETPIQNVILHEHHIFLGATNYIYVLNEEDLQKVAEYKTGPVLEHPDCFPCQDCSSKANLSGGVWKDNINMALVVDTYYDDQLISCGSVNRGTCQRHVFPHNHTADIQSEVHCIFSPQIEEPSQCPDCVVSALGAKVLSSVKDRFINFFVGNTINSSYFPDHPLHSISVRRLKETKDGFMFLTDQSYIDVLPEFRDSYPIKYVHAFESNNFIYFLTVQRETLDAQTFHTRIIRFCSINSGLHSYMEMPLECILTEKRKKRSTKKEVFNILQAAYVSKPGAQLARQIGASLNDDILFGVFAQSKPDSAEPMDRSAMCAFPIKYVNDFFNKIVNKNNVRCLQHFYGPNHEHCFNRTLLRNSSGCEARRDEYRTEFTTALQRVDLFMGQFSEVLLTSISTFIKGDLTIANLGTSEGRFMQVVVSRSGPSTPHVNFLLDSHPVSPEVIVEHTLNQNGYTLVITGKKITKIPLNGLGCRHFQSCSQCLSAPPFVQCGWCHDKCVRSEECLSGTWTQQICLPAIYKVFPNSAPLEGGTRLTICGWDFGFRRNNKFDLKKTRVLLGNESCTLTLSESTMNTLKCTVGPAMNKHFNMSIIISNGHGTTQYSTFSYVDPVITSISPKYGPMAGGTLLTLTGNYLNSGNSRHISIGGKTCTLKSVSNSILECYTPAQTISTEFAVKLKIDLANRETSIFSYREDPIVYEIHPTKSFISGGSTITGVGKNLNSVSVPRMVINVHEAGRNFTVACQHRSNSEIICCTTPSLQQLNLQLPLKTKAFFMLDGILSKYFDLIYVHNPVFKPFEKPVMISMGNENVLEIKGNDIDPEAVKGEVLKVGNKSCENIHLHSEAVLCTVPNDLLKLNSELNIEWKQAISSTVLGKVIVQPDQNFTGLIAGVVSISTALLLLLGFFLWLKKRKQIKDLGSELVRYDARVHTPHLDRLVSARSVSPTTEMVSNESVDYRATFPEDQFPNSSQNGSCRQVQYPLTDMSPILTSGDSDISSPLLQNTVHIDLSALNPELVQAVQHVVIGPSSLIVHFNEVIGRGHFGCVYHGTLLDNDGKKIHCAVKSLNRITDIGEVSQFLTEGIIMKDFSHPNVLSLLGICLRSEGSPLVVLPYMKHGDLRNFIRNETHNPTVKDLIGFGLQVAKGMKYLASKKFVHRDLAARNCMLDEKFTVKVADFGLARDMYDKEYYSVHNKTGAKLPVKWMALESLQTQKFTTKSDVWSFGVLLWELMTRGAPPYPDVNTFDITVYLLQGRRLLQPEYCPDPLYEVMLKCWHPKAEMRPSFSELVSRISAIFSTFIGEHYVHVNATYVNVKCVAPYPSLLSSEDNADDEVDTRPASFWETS

Row | Structure (SMILES) | IC50 (MET kinase) | IC50 [1] | IC50 [2] | IC50 [3] | IC50 [4] | inhibition at 0.03 µM [5]
1 | C[C@H]1COCCN1Cc1ccc(-c2cc3c(s2)Cc2c(-c4ccc5cnn(C)c5c4)n[nH]c2-3)cc1 [Compound 75, (S)-3-methyl-4-(4-(3-(1-methyl-1H-indazol-6-yl)-1,4-dihydrothieno [2′,3′:4,5]cyclopenta [1,2-c]pyrazol-6-yl)benzyl)morpholine] | > 1000 nM | 30 to 100 nM | > 10 µM | > 10 µM | > 10 µM | > 50%
2 | CCC(c1ccc(-c2cc3c(s2)Cc2c(-c4ccc5cnn(C)c5c4)n[nH]c2-3)cc1)N1CCOCC1 (stereo not drawn) [Compound 28, 4-(1-(4-(3-(1-methyl-1H-indazol-6-yl)-1,4-dihydro-thieno[2′,3′:4,5]cyclopenta [1,2-c]pyrazol-6-yl)phenyl)propyl)morpholine] | > 1000 nM | 30 to 100 nM | > 10 µM | > 10 µM | > 10 µM | > 50%
3 | Cn1ncc2ccc(-c3n[nH]c4c3Cc3sc(-c5ccc(C(=O)N6CCOCC6)nc5)cc3-4)cc21 [Compound 23, (5-(3-(1-methyl-1H-indazol-6-yl)-1,4-dihydro-thieno[2′,3′:4,5]cyclopenta [1,2-c]pyrazol-6-yl)pyridin-2-yl)(morpholino) methanone] | > 1000 nM | 30 to 100 nM | > 10 µM | > 10 µM | > 10 µM | > 50%
4 | c1cc(-c2cc3c(s2)Cc2c(-c4ccc5cn[nH]c5c4)n[nH]c2-3)ccc1CN1CCOCC1 [Compound 6, 4-(4-(3-(1H-indazol-6-yl)-1,4-dihydrothieno[2′,3′:4,5]cyclopenta[1,2-c]pyrazol-6-yl)benzyl)morpholine] | > 1000 nM | < 30 nM | > 10 µM | > 10 µM | > 10 µM | > 50%
5 | Cn1ncc2ccc(-c3n[nH]c4c3Cc3sc(-c5ccc(CN6CCCC6)cc5)cc3-4)cc21 [Compound 99, 3-(1-methyl-1H-indazol-6-yl)-6-(4-(pyrrolidin-1-ylmethyl)phenyl)-1,4-dihydrothieno[2′,3′:4,5] cyclopenta[1,2-c]pyrazole] | > 1000 nM | < 30 nM | 1 to 10 µM | > 10 µM | > 10 µM | > 50%
6 | Cn1ncc2ccc(-c3n[nH]c4c3Cc3sc(-c5ccc(CN6CCCCC6=O)cc5)cc3-4)cc21 [Compound 61, 1-(4-(3-(l-methyl-1H-indazol-6-yl)-1,4-dihydro-thieno[2′,3′:4,5]cyclopenta [1,2-c]pyrazol-6-yl)benzyl)piperidin-2-one] | > 1000 nM | < 30 nM | > 10 µM | > 10 µM | > 10 µM | > 50%
7 | C[C@@H]1COCCN1Cc1ccc(-c2cc3c(s2)Cc2c(-c4ccc5cnn(C)c5c4)n[nH]c2-3)cc1 [Compound 74, (R)-3-methyl-4-(4-(3-(1-methyl-1H-indazol-6-yl)-1,4-dihydrothieno [2′,3′:4,5]cyclopenta [1,2-c]pyrazol-6-yl)benzyl)morpholine] | > 1000 nM | 30 to 100 nM | > 10 µM | > 10 µM | > 10 µM | > 50%
8 | Cn1ncc2ccc(-c3n[nH]c4c3Cc3sc(-c5cc(F)c(CN6CCOCC6)c(F)c5)cc3-4)cc21 [Compound 53, 4-(2,6-difluoro-4-(3-(1-methyl-1H-indazol-6-yl)-1,4-dihydrothieno [2′,3′:4,5]cyclopenta [1,2-c]pyrazol-6-yl)benzyl)morpholine] | > 1000 nM | 100 to 300 nM | > 10 µM | > 10 µM | > 10 µM | > 50%
9 | Cn1ncc2ccc(-c3n[nH]c4c3Cc3sc(-c5cccc(CN6CCOCC6)c5)cc3-4)cc21 [Compound 13, 4-(3-(3-(1-methyl-1H-indazol-6-yl)-1,4-dihydro-thieno[2′,3′:4,5]cyclopenta [1,2-c]pyrazol-6-yl)benzyl) morpholine] | > 1000 nM | 30 to 100 nM | > 10 µM | > 10 µM | > 10 µM | > 50%
10 | Cn1ncc2ccc(-c3n[nH]c4c3Cc3sc(-c5ccc(CN6CCOCC6)cc5)cc3-4)cc21 [Compound 8, 4-(4-(3-(1-methyl-1H-indazol-6-yl)-1,4-dihydro-thieno[2′,3′:4,5]cyclopenta [1,2-c]pyrazol-6-yl)benzyl) morpholine] | > 1000 nM | 30 to 100 nM | > 10 µM | > 10 µM | > 10 µM | > 50%
11 | CN(C)C(=O)c1ccc(-c2cc3c(s2)Cc2c(-c4ccc5cnn(C)c5c4)n[nH]c2-3)cc1 [Compound 49, N,N-dimethyl-4-(3-(1-methyl-1H-indazol-6-yl)-1,4-dihydrothieno [2′,3′:4,5]cyclopenta [1,2-c]pyrazol-6-yl) benzamide] | > 1000 nM | < 30 nM | > 10 µM | > 10 µM | > 10 µM | > 50%
12 | Cn1ncc2ccc(-c3n[nH]c4c3Cc3sc(-c5ccc(CN6CCSCC6)cc5)cc3-4)cc21 [Compound 39, 3-(1-methyl-1H-indazol-6-yl)-6-(4-(thiomorpho-linomethyl)phenyl)-1,4-dihydrothieno[2′,3′:4,5] cyclopenta[1,2-c]pyrazole] | > 1000 nM | 30 to 100 nM | > 10 µM | > 10 µM | > 10 µM | > 50%
13 | Cn1ncc2ccc(-c3n[nH]c4c3Cc3sc(C5=CCN(C(=O)N6CCOCC6)CC5)cc3-4)cc21 [Compound 57, (4-(3-(1-methyl-1H-indazol-6-yl)-1,4-dihydro-thieno[2′,3′:4,5]cyclopenta [1,2-c]pyrazol-6-yl)-3,6-dihydropyridin-1(2H)-yl) (morpholino)methanone] | > 1000 nM | < 30 nM | > 10 µM | > 10 µM | > 10 µM | > 50%
14 | c1cc(CN2CCOCC2)ncc1-c1cc2c(s1)Cc1c(-c3ccc4cn[nH]c4c3)n[nH]c1-2 [Compound 18, 4-((5-(3-(1H-indazol-6-yl)-1,4-dihydrothieno[2′,3′:4,5]cyclopenta[1,2-c]pyrazol-6-yl)pyridin-2-yl)methyl) morpholine] | > 1000 nM | < 30 nM | > 10 µM | > 10 µM | > 10 µM | > 50%
15 | COc1cc(-c2cc3c(s2)Cc2c(-c4ccc5cnn(C)c5c4)n[nH]c2-3)ccc1C(=O)N1CCOCC1 [Compound 43, (2-methoxy-4-(3-(1-methyl-1H-indazol-6-yl)-1,4-dihydrothieno [2′,3′:4,5]cyclopenta [1,2-c]pyrazol-6-yl)phenyl)(morpholino) methanone] | > 1000 nM | 30 to 100 nM | > 10 µM | > 10 µM | > 10 µM | > 50%
